The values below come from paper PMC11475281, “A Novel Liver Cancer-Selective Histone Deacetylase Inhibitor Is Effective against Hepatocellular Carcinoma and Induces Durable Responses with Immunotherapy” (ACS Pharmacology & Translational Science, 2024).

One experiment has as its system Hep-G2 cells. Put plainly: Immunoblotting of cleaved Caspase 3 and p21WAF/CIP. In kind it is cell-based, human. The conditions noted are these: for Caspase 3 cleavage (cleaved Caspase 3/Pro-caspase 3): IC50 or 2× IC50 for 18 h; for p21WAF/CIP level: higher concentrations, 18 h. As for the experimental part:
Figure 3 Effects of STR-V-53 on intracellular markers of HDAC inhibition, antitumor immune response, and apoptosis. (a) STR-V-53 upregulates the levels of acetylated H4 and tubulin in Hep-G2 cells. Hep-G2 cells were treated with DMSO or 0.1% DMSO solution of SAHA (1.25 μM) and STR-V-53 (1.25 μM, 2.5 μM). Cells were treated for 5 h before lysis. Data are from two independent experiments. (b) STR-V-53 upregulates PD-L1 and downregulates PD-1 expressions in Hep-G2 cells. Cells were treated with DMSO or 0.1% DMSO solution of SAHA (5 μM and 10 μM) and STR-V-53 (10 and 20 μM) for 24 h. (c) STR-V-53 and SAHA caused upregulation of the levels of CD54 in the Hep-G2 cell line. Cells were treated with DMSO or 0.1% DMSO solution of SAHA (5 and 10 μM) and STR-V-53 (5, 10, and 20 μM) for 24 h. […] Cells were treated with DMSO or 0.1% DMSO solution of SAHA (5 μM) and STR-V-53 (10 and 20 μM).
HDAC inhibition could cause cell apoptosis through caspase cleavage and p21^WAF/CIP upregulation.[37] To probe if our compounds elicit a similar phenotype, we investigated the effects representative examples on the cellular levels of cleaved Caspase 3 and p21^WAF/CIP through immunoblotting.
In general terms: Immunoblotting shows a protein as a band on a membrane.

For experiment [1], the system named is A549 (lung adenocarcinoma). Put plainly: MTS cell viability assay, 72 h. The experiment is classed as cell-based. The source says: (§1) We then screened STR-V-53 and all the synthesized glycosylated HDACi for their effects on the viability of three cell lines: A549 (lung adenocarcinoma), Hep-G2 (HCC), and VERO (a normal kidney epithelial cell). We used SORA and STR-V-48, a previously disclosed nonglycosylated compound, as controls.[25] […] Additionally, compound STR-V-167, the peracetylated analog of STR-V-53, largely retained the Hep-G2 selectivity of STR-V-53 (Table S2). Subsequently, we evaluated the effects of STR-V-53 on cell proliferation using a panel of human HCC cell lines (Huh-7, SK-Hep-1, and Hep3B) as well as Kupffer cells (liver resident macrophages) by MTS assay. We observed that STR-V-53 is 7- to 16-fold more cytotoxic against these HCC cell lines relative to the Kupffer cells (Figure 1g). […] Based on their weak HDAC and cell proliferation inhibition activities, we de-emphasized further evaluation of the class III compounds.
(§2) 10-017-CV), supplemented with 10% fetal bovine serum (FBS) (Corning, 35-010-CV). Hep-G2 cells were cultured in phenol red-free Minimum Essential Medium (MEM) (Corning, 17-305-CV), supplemented with 10% fetal bovine serum (FBS). SK-Hep-1 in ATCC-formulated EMEM (ATCC® 30–2003™); Huh-7 in DMEM (containing 4 mM L-glutamine and 1 g/L glucose) with […]
(§3) Kupffer Cell Media (Sekisui XenoTech, LLC, Cat. #K8700). Cells were seeded into a 96-well plate (2000 counts/100uL) for 24 h prior to treatment and then treated with various drug concentrations for 72 h. All drugs were dissolved in media with DMSO concentration maintained at 1%. The effect of compounds on cell viability was measured using the MTS assay (CellTiter 96 Aqueous One Solution and CellTiter 96 Non-Radioactive Cell Proliferation Assays, Promega, Madison, WI) as described by the manufacturer. IC50s were determined using Prism GraphPad 8. […]
A general note: Formazan colour is commonly taken as a measure of viable cells.

The test system of experiment [2] is VERO (a normal kidney epithelial cell). Kind of experiment: MTS cell viability assay, 72 h. The experiment is classed as cell-based.
Text: as §1, §2, §3

The target in another experiment is HDAC1 (Homo sapiens, UniProt Q13547). Kind of experiment: HDAC isoform inhibition (BPS Bioscience).
For another experiment, the target named is HDAC2 (Homo sapiens, UniProt Q92769). Kind of experiment: HDAC isoform inhibition (BPS Bioscience).
Another experiment addresses T1, HDAC6 (Homo sapiens, UniProt Q9UBN7).
T1 sequence (Q9UBN7 1-1215): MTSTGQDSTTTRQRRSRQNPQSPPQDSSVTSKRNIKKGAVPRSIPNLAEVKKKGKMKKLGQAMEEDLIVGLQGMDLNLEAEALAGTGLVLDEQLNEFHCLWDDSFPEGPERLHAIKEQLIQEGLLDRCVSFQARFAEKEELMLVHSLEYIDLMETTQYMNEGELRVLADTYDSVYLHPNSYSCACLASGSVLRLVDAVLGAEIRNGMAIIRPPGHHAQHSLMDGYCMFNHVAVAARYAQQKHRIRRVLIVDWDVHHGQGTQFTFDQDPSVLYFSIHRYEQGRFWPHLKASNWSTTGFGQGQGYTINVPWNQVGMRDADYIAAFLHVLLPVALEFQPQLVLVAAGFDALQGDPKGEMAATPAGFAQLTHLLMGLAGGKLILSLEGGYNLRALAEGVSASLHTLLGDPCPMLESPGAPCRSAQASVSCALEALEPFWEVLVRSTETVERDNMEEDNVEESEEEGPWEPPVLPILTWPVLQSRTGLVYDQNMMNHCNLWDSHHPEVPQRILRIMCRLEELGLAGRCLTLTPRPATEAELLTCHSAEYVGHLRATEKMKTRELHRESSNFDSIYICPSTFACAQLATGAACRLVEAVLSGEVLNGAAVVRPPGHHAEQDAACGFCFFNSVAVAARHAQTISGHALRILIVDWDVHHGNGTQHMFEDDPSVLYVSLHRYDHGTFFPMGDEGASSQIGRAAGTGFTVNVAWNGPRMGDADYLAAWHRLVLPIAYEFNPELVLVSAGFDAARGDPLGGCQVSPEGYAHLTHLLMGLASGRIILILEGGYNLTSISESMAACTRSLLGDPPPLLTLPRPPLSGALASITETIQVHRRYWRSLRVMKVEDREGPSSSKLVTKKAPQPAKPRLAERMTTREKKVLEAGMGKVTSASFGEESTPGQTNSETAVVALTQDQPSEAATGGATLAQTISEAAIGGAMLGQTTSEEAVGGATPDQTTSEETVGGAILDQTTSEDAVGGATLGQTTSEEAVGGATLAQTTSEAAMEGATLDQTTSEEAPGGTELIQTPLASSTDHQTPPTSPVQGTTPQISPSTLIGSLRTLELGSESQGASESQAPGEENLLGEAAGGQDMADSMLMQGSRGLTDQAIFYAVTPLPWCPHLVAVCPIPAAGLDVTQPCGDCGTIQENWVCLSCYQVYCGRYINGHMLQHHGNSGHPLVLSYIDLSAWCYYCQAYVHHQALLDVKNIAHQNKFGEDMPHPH
Put plainly: HDAC isoform inhibition (BPS Bioscience).

The mark [3] stands for this setting: Table S2, read-out: Anti-proliferation IC50 A549.
Where [4] appears, read: Table S2, read-out: Anti-proliferation IC50 VERO.

The structures appear in SMILES notation. Like-named read-outs stand apart in the source and are kept apart here.

HDAC2, sequence (Q92769 whole entry, canonical isoform): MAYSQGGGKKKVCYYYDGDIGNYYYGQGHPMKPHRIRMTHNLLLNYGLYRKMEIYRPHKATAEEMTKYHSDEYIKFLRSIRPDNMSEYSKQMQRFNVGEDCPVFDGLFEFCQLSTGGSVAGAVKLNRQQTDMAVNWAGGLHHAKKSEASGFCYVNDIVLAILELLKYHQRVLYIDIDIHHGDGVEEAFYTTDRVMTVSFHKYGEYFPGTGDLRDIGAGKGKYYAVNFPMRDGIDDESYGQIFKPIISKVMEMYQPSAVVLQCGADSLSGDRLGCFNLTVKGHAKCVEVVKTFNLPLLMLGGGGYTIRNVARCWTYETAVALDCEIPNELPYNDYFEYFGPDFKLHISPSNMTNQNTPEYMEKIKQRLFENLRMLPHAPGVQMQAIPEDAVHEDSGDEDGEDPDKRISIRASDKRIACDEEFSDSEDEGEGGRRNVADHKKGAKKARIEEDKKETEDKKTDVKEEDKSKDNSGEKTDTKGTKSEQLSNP
HDAC1, sequence (Q13547 whole entry, canonical isoform): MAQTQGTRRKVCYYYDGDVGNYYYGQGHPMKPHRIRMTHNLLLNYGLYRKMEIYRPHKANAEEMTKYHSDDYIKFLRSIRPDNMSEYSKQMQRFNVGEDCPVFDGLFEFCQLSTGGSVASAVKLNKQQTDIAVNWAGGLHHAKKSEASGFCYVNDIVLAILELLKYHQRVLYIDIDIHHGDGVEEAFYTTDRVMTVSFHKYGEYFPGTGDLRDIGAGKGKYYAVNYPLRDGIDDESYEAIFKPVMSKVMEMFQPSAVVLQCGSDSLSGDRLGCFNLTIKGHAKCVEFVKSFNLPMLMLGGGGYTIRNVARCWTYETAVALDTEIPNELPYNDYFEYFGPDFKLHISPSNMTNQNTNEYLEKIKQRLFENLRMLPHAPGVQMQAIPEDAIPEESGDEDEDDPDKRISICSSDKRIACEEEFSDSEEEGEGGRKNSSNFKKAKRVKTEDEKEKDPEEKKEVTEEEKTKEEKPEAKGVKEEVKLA

As to `O=C(CCCCCCC(=O)Nc1ccccc1)NO` [SAHA, vorinostat, reference compound], in the experiment on Hep-G2 cells, the “Caspase 3 cleavage (cleaved Caspase 3/Pro-caspase 3)” value (from here on “Caspase 3 cleavage”) is reported as “showed cleavage of Caspase 3”.

In the case of `O=C(CCCCCCn1cc(-c2ccc(O[C@@H]3O[C@H](CO)[C@@H](O)[C@H](O)[C@H]3O)cc2)nn1)NO` [STR-I-195], the IC50 in experiment [1] (setting [3]) was over 100 µM; in experiment [2] (setting [4]) it was 65.5 ± 8.3 µM; at HDAC1 (read-out: HDAC1 IC50, Table S1), 14.6 nM; on HDAC2 (read-out: HDAC2 IC50, Table S1), 29.1 nM; on HDAC6 (read-out: HDAC6 IC50, Table S1), 2.51 nM. Moreover, the “Caspase 3 cleavage” value in the experiment with Hep-G2 cells is recorded as “showed cleavage of Caspase 3”. For the same molecule, in the experiment with Hep-G2 cells, the p21WAF/CIP level result was “upregulated significantly”.

For the molecule `O=C(CCCCCCn1cc(-c2ccc(O[C@H]3O[C@H](CO)[C@@H](O)[C@H](O)[C@H]3O)cc2)nn1)NO` [STR-V-53], the IC50 in experiment [1] (Homo sapiens, A549, Figure 1g, read-out: Anti-proliferation effects IC50 (μM) A549) was over 100 µM; in experiment [2] (Chlorocebus sabaeus, Vero, Figure 1g, read-out: Anti-proliferation effects IC50 (μM) Vero), over 100 µM; against HDAC1 it was 24.3 nM; at HDAC2, 60.1 nM; at HDAC6 it was 3.43 nM. In the experiment with Hep-G2 cells, the “Caspase 3 cleavage” value was “significant upregulation of cleave Caspase 3/Pro-caspase 3 ratio”. In the experiment with Hep-G2 cells, the p21WAF/CIP level result is listed as “upregulated significantly”.

As to `O=C(CCCCCCn1cc(-c2ccc3cc(O[C@H]4O[C@H](CO)[C@@H](O)[C@H](O)[C@H]4O)ccc3c2)nn1)NO` [STR-V-114], the IC50 in experiment [1] (setting [3]) was 77.2 ± 4.3 µM; in experiment [2] (setting [4]) it was 34.1 ± 3 µM; on HDAC1 (read-out: HDAC1 IC50, Table S1), 20.3 nM; at HDAC2 (read-out: HDAC2 IC50, Table S1), 61.5 nM; at HDAC6 (read-out: HDAC6 IC50, Table S1), 4.5 nM.
